Experimental findings from ChEMBL document CHEMBL5346967, “Discovery of BI 7446: A Potent Cyclic Dinucleotide STING Agonist with Broad-Spectrum Variant Activity for the Treatment of Cancer” (J Med Chem, 2023) are described below.

Broadly, the EC50 is the concentration that produces a half-maximal response. Broadly, the fraction unbound is the share of the substance not bound to proteins or other matrix. The term MRT denotes a mean duration of stay, worked out from the concentration-time curve. As a reminder, the inhibition is the drop in the measured response relative to a control, in per cent. Low values mean a response near the control, high ones a response far below the control. What is called solubility is the dissolved amount per volume that the medium holds. Read a high solubility as a readily soluble substance.

The target of series [1] is T1, Stimulator of interferon genes protein (Homo sapiens, UniProt Q86WV6). The series can be described thus: Agonist activity at human STING expressed in human THP-1 cells expressing IRF inducible SEAP reporter construct assessed as increase in interferon production incubated for 24 hrs by QUANTI-Blue colorimetric assay. Format: cell-based.
Target sequence in this assay (Q86WV6 whole entry): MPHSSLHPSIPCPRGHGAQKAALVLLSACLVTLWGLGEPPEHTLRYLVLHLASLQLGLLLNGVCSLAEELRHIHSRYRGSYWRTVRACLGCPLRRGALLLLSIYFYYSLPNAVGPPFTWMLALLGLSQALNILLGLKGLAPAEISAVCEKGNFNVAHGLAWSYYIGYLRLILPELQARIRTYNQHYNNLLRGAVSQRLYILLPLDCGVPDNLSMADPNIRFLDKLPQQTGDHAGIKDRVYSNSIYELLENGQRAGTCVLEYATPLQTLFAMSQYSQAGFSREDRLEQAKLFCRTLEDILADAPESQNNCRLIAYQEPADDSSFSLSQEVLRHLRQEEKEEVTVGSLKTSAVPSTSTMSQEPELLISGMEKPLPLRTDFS
For series [2], the target named is T1, Stimulator of interferon genes protein. The conditions noted are these: filed as agonist.
Target sequence in this assay (Q86WV6 whole entry): as above
Description: Binding affinity to recombinant human wild type STING (155 to 341 residues) expressed in Escherichia coli BL21 DE3 assessed as thermal stabilization by measuring change in melting temperature by differential scanning fluorimetry
The nature of series [3]: Volume of distribution at steady state in C57BL/6 mouse at 1 micromol/kg, iv by HPLC/MS/MS analysis. The class given is ADME, organism-based. Conditions: in vivo, dose 1 µmol/kg, read-out: Vdss.
Series [4] in a line: Protein binding in mouse plasma assessed as unbound fraction at 3 uM incubated for 2 hrs by equilibrium dialysis based HPLC/MS/MS analysis. Format: ADME, cell-free. Background: Equilibrium dialysis compares concentrations on both sides of a semipermeable membrane.
The nature of series [5]: Stability in mouse plasma assessed as half life at 1 uM by HPLC/MS/MS analysis. The class given is ADME, cell-free.
A short description of series [6]: Clearance in C57BL/6 mouse plasma assessed as hepatic blood flow at 1 micromol/kg, iv by HPLC/MS/MS analysis. Format: ADME, organism-based. Conditions: in vivo, at 1 µmol/kg.
A short description of series [7]: MRT in C57BL/6 mouse at 1 micromol/kg, iv by HPLC/MS/MS analysis. The class given is ADME, organism-based. The conditions noted are these: in vivo, dose 1 µmol/kg.
The target in a further series is hERG (KCNH2) (Homo sapiens, UniProt Q12809). The series can be described thus: Inhibition of human ERG at 10 uM. The class given is toxicity.
Sequence of hERG (KCNH2) (Q12809 whole entry): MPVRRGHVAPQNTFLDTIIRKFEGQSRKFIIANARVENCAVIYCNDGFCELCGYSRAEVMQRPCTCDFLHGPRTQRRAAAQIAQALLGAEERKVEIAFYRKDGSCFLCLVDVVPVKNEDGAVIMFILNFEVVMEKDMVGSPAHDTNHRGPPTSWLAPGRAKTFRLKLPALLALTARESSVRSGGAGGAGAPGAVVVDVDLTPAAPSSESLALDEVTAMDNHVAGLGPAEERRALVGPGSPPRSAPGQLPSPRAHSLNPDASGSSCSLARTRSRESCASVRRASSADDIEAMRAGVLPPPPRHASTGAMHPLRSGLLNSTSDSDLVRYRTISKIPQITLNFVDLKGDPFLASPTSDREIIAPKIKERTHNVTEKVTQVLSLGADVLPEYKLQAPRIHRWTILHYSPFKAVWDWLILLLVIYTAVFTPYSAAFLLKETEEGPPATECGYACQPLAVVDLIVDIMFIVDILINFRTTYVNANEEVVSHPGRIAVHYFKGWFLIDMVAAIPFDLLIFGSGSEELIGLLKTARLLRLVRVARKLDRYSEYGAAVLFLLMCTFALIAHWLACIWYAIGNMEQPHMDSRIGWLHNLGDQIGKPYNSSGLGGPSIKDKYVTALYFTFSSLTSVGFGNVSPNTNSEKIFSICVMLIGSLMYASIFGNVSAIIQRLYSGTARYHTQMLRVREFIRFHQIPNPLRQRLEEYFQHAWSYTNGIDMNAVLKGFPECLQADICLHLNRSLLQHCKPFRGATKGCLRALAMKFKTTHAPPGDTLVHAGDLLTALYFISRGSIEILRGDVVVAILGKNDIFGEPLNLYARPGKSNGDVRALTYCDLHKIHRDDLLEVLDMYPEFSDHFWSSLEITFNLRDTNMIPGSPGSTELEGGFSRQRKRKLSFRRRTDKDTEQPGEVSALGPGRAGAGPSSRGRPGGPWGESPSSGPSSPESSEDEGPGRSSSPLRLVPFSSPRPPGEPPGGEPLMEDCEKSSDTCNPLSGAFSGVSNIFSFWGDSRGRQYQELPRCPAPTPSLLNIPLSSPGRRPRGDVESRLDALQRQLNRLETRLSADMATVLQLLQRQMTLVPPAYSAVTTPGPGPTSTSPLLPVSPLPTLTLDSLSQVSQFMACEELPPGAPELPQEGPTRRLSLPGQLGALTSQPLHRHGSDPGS
Series [8] deals with T2, Stimulator of interferon genes protein (Mus musculus) (UniProt Q3TBT3).
T2 sequence (whole entry): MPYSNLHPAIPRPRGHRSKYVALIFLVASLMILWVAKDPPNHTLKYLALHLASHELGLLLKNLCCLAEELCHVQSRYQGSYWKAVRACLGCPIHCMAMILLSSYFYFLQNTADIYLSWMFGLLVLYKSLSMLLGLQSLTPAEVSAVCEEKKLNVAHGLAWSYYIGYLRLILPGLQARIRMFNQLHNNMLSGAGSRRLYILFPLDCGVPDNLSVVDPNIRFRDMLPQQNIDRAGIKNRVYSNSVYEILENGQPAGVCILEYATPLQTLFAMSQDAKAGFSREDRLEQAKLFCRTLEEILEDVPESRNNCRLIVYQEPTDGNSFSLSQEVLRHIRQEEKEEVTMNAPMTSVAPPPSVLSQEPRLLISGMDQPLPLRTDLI
Conditions: filed as agonist.
Description: Binding affinity to recombinant mouse STING assessed as change in melting temperature by differential scanning fluorimetry

In series [9] the target is T1, Stimulator of interferon genes protein. Description: Agonist activity at human STING in STING knockout human THP1-Blue ISG cells expressing IRF inducible SEAP reporter construct assessed as increase in interferon production by measuring SEAP activity incubated for 24 hrs by Fingerprinting based QUANTI-Blue colorimetric assay. Format: cell-based.
Target sequence in this assay (Q86WV6 whole entry): as the sequence (Q86WV6 whole entry) above
The target is the same in series [10]. Description: Agonist activity at human STING AQ variant overexpressed in STING knockout human THP1-Blue ISG cells expressing IRF inducible SEAP reporter construct assessed as increase in interferon production by measuring SEAP activity incubated for 24 hrs by Fingerprinting based QUANTI-Blue colorimetric assay. The class given is cell-based.
Target sequence in this assay (Q86WV6 whole entry, looked up, change not shown): as the sequence (Q86WV6 whole entry) above
For series [11] the target is unchanged. The series can be described thus: Agonist activity at human STING REF variant overexpressed in STING knockout human THP1-Blue ISG cells expressing IRF inducible SEAP reporter construct assessed as increase in interferon production by measuring SEAP activity incubated for 24 hrs by Fingerprinting based QUANTI-Blue colorimetric assay. Format: cell-based.
Target sequence in this assay (Q86WV6 whole entry, looked up, change not shown): as the sequence (Q86WV6 whole entry) above
The target is the same in series [12]. The series can be described thus: Agonist activity at human STING HAQ variant overexpressed in STING knockout human THP1-Blue ISG cells expressing IRF inducible SEAP reporter construct assessed as increase in interferon production by measuring SEAP activity incubated for 24 hrs by Fingerprinting based QUANTI-Blue colorimetric assay. The class given is cell-based.
Target sequence in this assay (Q86WV6 whole entry, looked up, change not shown): as the sequence (Q86WV6 whole entry) above

The target is the same in series [13]. Description: Agonist activity at human STING Q variant overexpressed in STING knockout human THP1-Blue ISG cells expressing IRF inducible SEAP reporter construct assessed as increase in interferon production by measuring SEAP activity incubated for 24 hrs by Fingerprinting based QUANTI-Blue colorimetric assay. The class given is cell-based.
Target sequence in this assay (Q86WV6 whole entry, looked up, change not shown): as the sequence (Q86WV6 whole entry) above
Series [14] shares this target. The series can be described thus: Agonist activity at human wild type STING overexpressed in STING knockout human THP1-Blue ISG cells expressing IRF inducible SEAP reporter construct assessed as increase in interferon production by measuring SEAP activity incubated for 24 hrs by Fingerprinting based QUANTI-Blue colorimetric assay. The class given is cell-based.
Target sequence in this assay (Q86WV6 whole entry): as above
Series [15] is described as follows: Stability in human plasma assessed as half life at 1 uM by HPLC/MS/MS analysis. The class given is ADME, cell-free.
The nature of series [16]: Protein binding in human plasma assessed as unbound fraction at 3 uM incubated for 2 hrs by equilibrium dialysis based HPLC/MS/MS analysis. The class given is ADME, cell-free.
Series [17] is described as follows: Clearance in C57BL/6 mouse plasma assessed as hepatic blood flow at 10 micromol/kg, iv by HPLC/MS/MS analysis. Format: ADME, organism-based. Conditions: in vivo, at 10 µmol/kg.
Series [18] can be described thus: MRT in C57BL/6 mouse at 10 micromol/kg, iv by HPLC/MS/MS analysis. The class given is ADME, organism-based. Conditions: in vivo, dose 10 µmol/kg.
Series [19] in a line: Chemical stability of compound in 0.9% NaCl buffer assessed as compound degradation at 1 mg/ml incubated for 8 weeks at 40 degreeC by HPLC-UV analysis. The class given is physicochemical. The conditions noted are these: read-out: Drug degradation.
Series [20] can be described thus: Volume of distribution at steady state in C57BL/6 mouse at 10 micromol/kg, iv by HPLC/MS/MS analysis. The conditions noted are these: in vivo, dose 10 µmol/kg, read-out: Vdss. Format: ADME, organism-based.
Series [21] can be described thus: Elimination half life in BALB/c syngeneic mouse tumor xenografted with mouse 4T1 cells at 0.16 to 1.4 mg/kg,IT and measured upto 25 hrs by HPLC/MS/MS analysis. The class given is ADME, organism-based, Neoplasm. The conditions noted are these: dose 0.16-1.4 mg/kg, read-out: beta t1/2 (converted).
The nature of series [22]: Chemical stability of compound in phosphate buffer assessed as compound degradation at 1 mg/ml incubated for 8 weeks at 40 degreeC by HPLC-UV analysis. Format: physicochemical. Conditions: read-out: Drug degradation.
A short description of series [23]: Aqueous solubility of compound in 0.9% NaCl buffer at pH 6.4 incubated for 2 hrs by HPLC-UV analysis. The class given is physicochemical.
Series [24] can be described thus: Aqueous solubility of compound in phosphate buffer at pH 7.6 incubated for 2 hrs by HPLC-UV analysis. Format: physicochemical.

As to `CO[C@@H]1[C@@H]2O[P@](=O)(S)OC[C@H]3O[C@@H](n4cnc5c(=O)[nH]ncc54)[C@H](O[P@](=O)(S)OC[C@H]2O[C@H]1n1cnc2c(N)ncnc21)[C@@H]3O`, the EC50 in series [1] is above 100000 nM. This molecule also had a deltaTm in series [2] of 3.7 K.

Take `Nc1ncnc2c1ncn2[C@@H]1O[C@@]23CO[C@@H]1[C@@H]2O[P@](=O)(S)OC[C@H]1O[C@@H](n2cnc4c(=O)[nH]ncc42)[C@H](O[P@](=O)(S)OC3)[C@@H]1O`: the EC50 in series [1] turned out to be 170 nM. The molecule further yielded a deltaTm in series [2] of 17 K.

With `Nc1ncnc2c1ncn2[C@@H]1O[C@@H]2CO[P@@](=O)(S)O[C@@H]3[C@H](O)[C@@H](CO[P@@](=O)(S)O[C@H]2[C@H]1O)O[C@H]3n1cnc2c(N)ncnc21`, the Vd in [3] came out at 0.8 L/kg. The fraction unbound at 2 h, 3 µM in series [4] stood at 0.32. Also, in series [5], the half-life at 1 µM was above 2.17 h. The QH in series [6] is on record as 120%. This molecule showed a mean residence time (MRT) in [7] of 7.2 min. Besides, testing at 10 µM at hERG (KCNH2) gave an inhibition of 0.4%. This molecule also had a deltaTm in series [8] of 13.5 K.

Regarding `O=c1[nH]ncc2c1ncn2[C@@H]1O[C@@H]2CO[P@@](=O)(S)O[C@H]3[C@@H](O)[C@H](n4cnc5cncnc54)O[C@@H]3CO[P@@](=O)(S)O[C@@H]1[C@@H]2O`, the EC50 in [9] was above 50000 nM; in series [1] it was 230 nM; in series [10] it was 1670 nM; in [11], above 50000 nM; in [12], 2060 nM; in series [13], 22500 nM. In series [14], the EC50 was 1950 nM. The molecule also yielded a deltaTm in series [2] of 13.9 K.

As for `O=c1[nH]ncc2c1ncn2[C@@H]1O[C@@H]2CO[P@@](=O)(S)O[C@H]3[C@@H](O)[C@H](n4cnc5ccccc54)O[C@@H]3CO[P@@](=O)(S)O[C@@H]1[C@@H]2O`, the EC50 in [1] is above 100000 nM. The deltaTm in series [2] was determined as 3.6 K.

Consider `Nc1ncnc2c1ncn2[C@@H]1O[C@@H]2CO[P@@](=O)(S)O[C@@H]3[C@H](O)[C@@H](CO[P@@](=O)(S)O[C@H]2[C@H]1F)O[C@H]3n1cnc2c(=O)[nH]ncc21`, for which the half-life at 1 µM in [15] and in series [5] was above 2.17 h in each case. Further, the fraction unbound at 2 h, 3 µM in series [4] is 0.77; in [16], 0.74. The molecule also showed an inhibition at 10 µM against hERG (KCNH2) of 1%. In series [17], the QH stood at 78%. The MRT in [18] came to 0.53 h. Also, the degraded at 1344 h, 1 mg/ml in series [19] and in series [22] was above 0.5% each time. Also, the Vd in [20] was 2.2 L/kg. The half-life in [21] was 7 h. Further, the solubility at 2 h in [23] and in [24] was above 10000 µg/mL throughout.

Turning to `Nc1ncnc2c1ncn2[C@@H]1O[C@@H]2CO[P@@](=O)(S)O[C@@H]3[C@H](O)[C@@H](CO[P@@](=O)(S)O[C@H]2[C@H]1F)O[C@H]3c1cnn2c(=O)[nH]ncc12`, the EC50 in [9] is above 50000 nM; in [1] it was 140 nM; in series [10] it was 680 nM; in series [11], 24300 nM; in series [12], 1040 nM; in series [13] it was 3380 nM. Moreover, the EC50 in series [14] was 830 nM. Moreover, in series [2], the deltaTm turned out to be 18 K.

As for `Nc1ncnc2c1ncn2[C@@H]1CO[C@@H]2O[P@@](=O)(S)O[C@@H]3[C@H](O)[C@@H](CO[P@@](=O)(S)O[C@H]2[C@H]1O)O[C@H]3n1cnc2c(=O)[nH]ncc21`, in series [1], the EC50 was above 100000 nM. Besides, the deltaTm in [2] is 1.75 K.

As for `Nc1ncnc2c1ncn2[C@@H]1O[C@@H]2CO[P@@](=O)(S)O[C@@H]3[C@H](O)[C@@H](CO[P@@](=O)(S)O[C@H]2[C@H]1F)O[C@H]3n1cnc2c(=O)[nH]nnc21`, the EC50 in series [9] was above 50000 nM; in series [1] it was 160 nM; in [10], 610 nM; in series [11] it was 6010 nM; in series [12], 580 nM; in [13] it was 1880 nM. Moreover, in [14], the EC50 came to 580 nM. In addition, the deltaTm in series [2] was 23.9 K.
